Patent publication US20120316241A1, “REMEDY FOR CARTILAGE-RELATED DISEASES” (ONO PHARMACEUTICAL CO., LTD., priority 2003, published 2012)

Columns and labels:
[1] = tested on: MMA2 chondrocyte strain; assay: intracellular cAMP concentration (cAMP assay kit); type: cell-based, mouse; details: 12 hours with agonist
Experimental: Cartilage tissues of a femur and the shinbone collected from a p53 defective mouse of 4 weeks of age (Tukada, T., Oncogene, 1992, vol. 8, pp. 3313-3322) were cut into pieces, treated with 0.1% collagenase and then cultured (culture conditions; 5% CO2, 37° C., under humidification, hereinafter, this was carried out under the same conditions) using DMEM/Ham's F12 (1:1) medium (contains 10% fetal bovine serum (FBS) and antibiotics (to be referred to as DMEM/Ham's F12 medium hereinafter)). By carrying out dilution sub-culturing from the cell group under a 80 to 90% confluent state, a chondrocyte strain MMA2 recognized by an international deposition number FERM BP-10029 was isolated. […]
Culturing of each chondrocyte was started at a cell density of 1×10^4 cells/24 well culture dish, and 2 hours thereafter, each of the selective EP agonists shown in Example 2 was added thereto to continue the culturing for additional 12 hours. The intracellular cAMP concentration was measured using a cAMP assay kit (Cayman Chemical Company) and in accordance with the instructions attached to the kit, using, as a sample, lysed supernatant of the cell prepared by lysing the same with a cell lysis liquid (0.1 mM Tris/HCl buffer, pH 7.2).

[2] = tested on: chondrocyte strain; assay: gene expression profile by cDNA microarray, reconfirmed by RT-PCR; type: cell-based, mouse; details: 1 μM, 72 hours, medium with 5 μM indometacin
Experimental: Culturing of each chondrocyte was started at a cell density of 3×10^5 cells/100 mm culture dish, and 2 days and 21 days thereafter, respective total RNA samples were prepared using Trizol Reagent (mfd. by Life Technologies) in accordance with the instructions attached thereto. The RT reaction was carried out in accordance with the instructions attached to RT-PCR kit (mfd. by Life Technologies) using 1 μg of the thus prepared total RNA. The PCR reaction was carried out in 25 μl of a reaction liquid (20 μmol sense primer, 20 μmol antisense primer, 25 mM MgCl2, 0.2 mM dNTP, 1 unit γTaq polymerase (mfd. by TOYOBO., LTD.)) containing 1 μl of the RT reaction liquid. The PCR reaction (in the reaction, starting reaction was carried out at 94° C. for 5 minutes, and then the following reaction (denaturation reaction at 94° C. for 1 minute, annealing reaction at 72° C. for 1 minute and elongation reaction at 72° C. for 7 minutes) was carried out 35 times) was carried out using Gene Amp 9700 (mfd. by PE Applied Biosystem). Sequences of the primers used in the above RT-PCR are shown in the following.
Gene expression profile of chondrocytes was analyzed by a custom-made cDNA microarray system. This system was prepared by spotting 78 species of bone- and cartilage-related mouse genes and 900 species of mouse genes (InteliGene CHIP ver. 1) (mfd. by Takara Bio INC.) on a glass slide.
A chondrocyte was cultured for 72 hours in DMEM/F12 medium (contains 5 μM indometacin) in the presence or absence of each of the selective EP agonists shown in Example 2 (1 μM), and respective total RNA samples were extracted. A fluorescent cDNA probe was synthesized using 20 μg of each of the total RNA samples as the template, and using 400 U of M-MLV reverse transcriptase and Cy3 or Cy5-dUTP (Amersham Biosciences).
Each cDNA probe dissolved in a reaction buffer (6×SSC/0.2% SDS, 5×Denhardt's solution, 0.1 mg/ml denatured salmon sperm DNA) was allowed to hybridize with the spots on the glass slide at 65° C. overnight. The slide was washed with a washing liquid (2×SSC/0.2% SDS) twice at 55° C. for 5 minutes and then once at 65° C. for 5 minutes, and finally washed with 0.05×SSC solution at room temperature for 1 minute. The hybridization signal was visualized by Affymetrix 418 Array Scanner (mfd. by Affymetrix), and analyzed by ImaGene software (mfd. by BioDiscovery). Regarding the expressed genes in which changes were confirmed, reconfirmation was carried out by the RT-PCR method.

[3] = tested on: rat femur head articular cartilage; assay: PCNA immunohistological staining of organ-cultured articular cartilage; details: 1 μM, after 7 days of organ culture
Experimental: (§1) The cartilage deficiency model was prepared from a femoral condyle articular cartilage collected from a rat of 5 weeks of age, by cutting the cartilage layer alone such that damage is not given to the subchondral bone. The femur was soaked in the DMEM/Ham's F12 medium (contains 5 μM indometacin) and cultured for 21 days in the presence (treated group) or absence (control group) of the selective EP agonist described in Example 2 (10 μM or 1 μM). Area of the newly formed cartilage tissue was measured using Image-Pro Plus software (mfd. by Planetron) and calculated as an area ratio with the untreated lateral joint face.
(§2) The formalin-fixed sections were prepared on the 0th day, 7th day, 14th day and 21st day starting from the commencement of tissue culturing described in Example 8. Each section was decalcified with EDTA (10% w/v) for 7 days and then sliced into a section of 4 μm in thickness. The hematoxylin-eosin staining and alcian blue staining were carried out by the aforementioned method.
Regarding the PCNA immuno histological staining, the prepared slide was treated with 3% hydrogen peroxide and then subjected to a blocking treatment using a blocking solution (mfd. by Dako Cytomation). […] After washing, the reaction with a substrate, 3,3′-diaminobenzidine tetrahydrochloride (mfd. by Dako Cytomation), was detected. […]

[4] = tested on: human primary-cultured chondrocyte; assay: cell growth activity, BrdU incorporation assay; type: cell-based; details: 1 μM overnight, then 8 hours with BrdU; normal cartilage and RA articular cartilage derived cells
Experimental: Human primary-cultured chondrocytes were isolated from knee articular cartilages of three patients who underwent above-knee amputation due to femur osteosarcoma. In addition, other human primary-cultured chondrocytes were obtained from rheumatic arthritis patients who underwent artificial hip joint replacement. Isolation operation of these cells was also carried out by the method described in the above.
The cell growth activity was measured by a BrdU incorporation assay using BrU labeling, detection kit (mfd. by Boehringer Mannheim GmbH).
Culturing of each chondrocyte was started at a cell density of 2×10^3 cells/96 well culture dish, and after adhesion of the cells, the selective EP agonist described in Example 2 (1 μM) was added thereto to start the culturing at 37° C. overnight. Subsequently, the culturing was continued for 8 hours together with BrdU (final concentration 110 μM), and the labeled nucleus was detected by the method of the instructions attached to the kit.

[5] = tested on: femoral condyle articular cartilage; assay: cartilage deficiency model, femoral condyle articular cartilage organ culture; parameters: species or system rat
Experimental: as §1, §2

SMILES	intracellular cAMP [1]	expression of fibronectin, integrin, cyclin D1, MAZ, AP2α and 14-3-3γ genes [2]	expression of osteopontin and MGP genes [2]	PCNA staining affinity [3]	DNA synthesis (BrdU incorporation) [4]	ratio of the regenerated tissue (area ratio with the untreated lateral joint face) ([5]; 1 μM or 10 μM, cultured for 21 days)	tissue regeneration image (hematoxylin-eosin, alcian blue staining) ([5]; treated group against control group, 21 days)
C=CCC1(C(O)C/C=C/[C@@H]2[C@@H](C/C=C\CCCC(=O)O)[C@H](Cl)C[C@H]2O)CCC1 (stereo partly drawn) [EP2 agonist, (5Z,9β,11α,13E)-17,17-propano-11,16-dihydroxy-9-chloroprostar-5,13,19-trienoic acid]	increased concentration-dependently	stimulated	reduced	distinctively increased	DNA synthesis accelerating effect	increased periodically and concentration-dependently	a regeneration image having a staining affinity of similar to that of a remaining existing cartilage (right side) was observed
CCCCC[C@@H](/C=C/[C@H]1[C@H](OC)CC(=O)[C@@H]1C/C=C\CCCC(=O)O)OC [EP3 agonist, 11α,15α-dimethoxy-9-oxoprosta-5Z,13E-dienoic acid]		stimulated	reduced	distinctively increased			
